Several values for one entry are separate records, joined by “and”; a condition that tells them apart may be missing. Equal values may be shown once.
Assays:
P. falciparum Dd2 (CQR) = assay: Inhibition of P. falciparum growth; assay type: cell-based; conditions: Plasmodium falciparum, DD2, 72 h, read-out: IC50 (nM) for P. falciparum Dd2
P. falciparum D6 (CQS) = assay: Inhibition of P. falciparum growth; assay type: cell-based; conditions: Plasmodium falciparum, D6, 72 h, read-out: IC50 (nM) for P. falciparum D6
[1] = tested on: CQS D6-infected RBCs (P. falciparum); assay: Accumulation experiment in parasitized red blood cells, D6; assay type: cell-based; conditions: for Uptake: by 6 × 10^7 PRBCs after 1 hour of incubation, initial medium ∼ 5 µM, ±5%
[2] = tested on: CQR Dd2-infected RBCs (P. falciparum); assay: Accumulation experiment in parasitized red blood cells, Dd2; assay type: cell-based; conditions: for Uptake: by 6 × 10^7 PRBCs after 1 hour of incubation, initial medium ∼ 5 µM, ±5%
P. berghei = assay: Mouse efficacy against P. berghei; conditions: for Mouse survival (days): 1 × 30 mg/kg
[3] = tested on: hemozoin production in D6 P. falciparum; assay: Hemozoin inhibition in cell culture; assay type: cell-based; conditions: 24 hours
[4] = General cytotoxicity, mitogen-stimulated murine spleenic lymphocytes; assay type: cell-based; conditions: mouse, mitogen-stimulated murine splenic lymphocytes
[5] = tested on: hemozoin production in Dd2 P. falciparum; assay: Hemozoin inhibition in cell culture; assay type: cell-based
β-hematin = β-hematin inhibition; assay type: biochemical; conditions: for IC50: read-out: β-hematin inhibition, 40 µM heme, acetate pH 4.8, Tween20, 24 hours at 37°C
[6] = Signs of toxicity when administered to mice; assay type: in vivo; conditions: administered to mice in the P. berghei experiments
[7] = Heme-drug binding by optical titration; conditions: apparent; 2:1 heme to drug stoichiometry; 5 µM heme, phosphate buffer pH 5.7
[8] = [concentration in DV / concentration in medium]

CCN(CC)CCCC(C)Nc1ccnc2cc(Cl)ccc12 (stereo not shown) [CQ, chloroquine, reference compound]
IC50 (P. falciparum Dd2 (CQR)): 102 nM
IC50 (P. falciparum D6 (CQS)): 6.9 nM
Uptake [1]: 7e-09 mol
Uptake [2]: 5e-09 mol

CN(CCCNc1ccnc2cc(Cl)ccc12)CCCN1c2ccccc2CCc2ccccc21 [Compound 1]
Mouse survival (days) (P. berghei; oral): Mice euthanized day 3
hemozoin formation by microscopy ([3]; 100 nM drug): some hemozoin present
IC50 [4]: 700 nM
Accumulation ratio [1, 8]: 32,000
Uptake [1]: 1.6e-08 mol
increase of DV concentration over initial medium concentration ([1]; initial medium concentration ∼ 5 µM): 13,000 fold
hemozoin formation by microscopy ([5]; 100 nM drug, 24 hours (not shown)): also the case
IC50 (β-hematin): 9000 nM
Accumulation ratio [2, 8]: 38,000
Uptake [2]: 1.8e-08 mol

Clc1ccc2c(NCCN3CCN(C(c4ccccc4)c4ccccc4)CC3)ccnc2c1 [Compound 4, N-(2-(4-Benzhydrylpiperazin-1-yl)ethyl)-7-chloroquinolin-4-amine]
Mouse survival (days) (P. berghei; subcutaneous): Mice euthanized day 3
increase in survival days compared to control animals (P. berghei; 4 × 30 mg/kg, oral): ~10 days
IC50 [4]: 1900 nM
IC50 (β-hematin): 2500 nM

Clc1ccc2c(NCCCN3CCN(C(c4ccccc4)c4ccccc4)CC3)ccnc2c1 [Compound 5, N-(3-(4-Benzhydrylpiperazin-1-yl)propyl)-7-chloroquinolin-4-amine]
IC50 [4]: 1100 nM
IC50 (β-hematin): 3500 nM

Clc1ccc2c(NCCCN3CCCN(C(c4ccccc4)c4ccccc4)CC3)ccnc2c1 [Compound 6, N-(3-(4-Benzhydryl-1,4-diazepan-1-yl)propyl)-7-chloroquinolin-4-amine]
IC50 [4]: 700 nM

Clc1ccc(C(c2ccccc2)N2CCN(CCNc3ccnc4cc(Cl)ccc34)CC2)cc1 (stereo not shown) [Compound 7, 7-Chloro-N-(2-(4-((4-chlorophenyl)(phenyl)methyl)piperazin-1-yl)ethyl)quinolin-4-amine]
IC50 [4]: 1400 nM

Clc1ccc(C(c2ccccc2)N2CCN(CCCNc3ccnc4cc(Cl)ccc34)CC2)cc1 (stereo not shown) [Compound 8, 7-Chloro-N-(3-(4-((4-chlorophenyl)(phenyl)methyl)piperazin-1-yl)propyl)quinolin-4-amine]
IC50 [4]: 800 nM

Clc1ccc(C(c2ccccc2)N2CCCN(CCCNc3ccnc4cc(Cl)ccc34)CC2)cc1 (stereo not shown) [Compound 9, 7-Chloro-N-(3-(4-((4-chlorophenyl)(phenyl)methyl)-1,4-diazepan-1-yl)propyl)quinolin-4-amine]
IC50 [4]: 900 nM

Fc1ccc(C(c2ccc(F)cc2)N2CCN(CCCNc3ccnc4cc(Cl)ccc34)CC2)cc1 [Compound 10, N-(3-(4-(Bis(4-fluorophenyl)methyl)piperazin-1-yl)propyl)-7-chloroquinolin-4-amine]
IC50 [4]: 4100 nM

Clc1ccc2c(NCCN3CCCN(C4c5ccccc5-c5ccccc54)CC3)ccnc2c1 [Compound 11, N-(2-(4-(9H-Fluoren-9-yl)-1,4-diazepan-1-yl)ethyl)-7-chloroquinolin-4-amine]
IC50 [4]: 2500 nM

Clc1ccc2c(NCCCN3CCCN(C4c5ccccc5-c5ccccc54)CC3)ccnc2c1 [Compound 12, N-(3-(4-(9H-Fluoren-9-yl)-1,4-diazepan-1-yl)propyl)-7-chloroquinolin-4-amine]
IC50 [4]: 2500 nM

CN(CCCN1c2ccccc2CCc2ccccc21)CCNc1ccnc2cc(Cl)ccc12 [Compound 13, N^1-(7-chloroquinolin-4-yl)-N^2-(3-(10,11-dihydro-5H-dibenzo[b,f]azepin-5-yl)propyl)-N^2-methylethane-1,2-diamine]
IC50 [4]: 1400 nM
IC50 (β-hematin): 10000 nM

Clc1ccc2c(NCCCN3CCN(C(c4ccccc4)(c4ccccc4)c4ccccc4)CC3)ccnc2c1 [Compound 15, 7-Chloro-N-(3-(4-tritylpiperazin-1-yl)propyl)quinolin-4-amine]
Mouse survival (days) (P. berghei; subcutaneous): Mice euthanized day 3
mice cured (P. berghei; 4 × 30 mg/kg, oral, parasite-free on day 30 post-infection): 1/3
β-hematin inhibition (µM) (β-hematin; IC50, 40 µM heme, acetate pH 4.8, Tween20, 24 hours at 37°C): insoluble

Clc1ccc2c(NCCCN3CCN(C4C5CC6CC(C5)CC4C6)CC3)ccnc2c1 (stereo not shown) [Compound 17, N-(3-(4-(Adamant-2-yl)piperazin-1-yl)propyl)-7-chloroquinolin-4-amine]
IC50 (β-hematin): 14000 nM

Clc1ccc2c(NCCN3CCC(NC(c4ccccn4)c4ccccn4)CC3)ccnc2c1 [Compound 21, 7-Chloro-N-(2-(4-(dipyridin-2-ylmethylamino)piperidin-1-yl)ethyl)quinolin-4-amine]
mice cured (P. berghei; second trial, 4 × 44 mg/kg, oral (equimolar to 30 mg/kg CQ)): 3 out of 3 and 3/3
IC50 (β-hematin): ~2000 nM and 2000 nM

Clc1ccc2c(NCCCN3CCC(NC(c4ccccn4)c4ccccn4)CC3)ccnc2c1 [Compound 22, 7-Chloro-N-(3-(4-(dipyridin-2-ylmethylamino)piperidin-1-yl)propyl)quinolin-4-amine]
signs of toxicity in mice [6]: no obvious signs of toxicity
IC50 (P. falciparum Dd2 (CQR)): 1.6 nM
mice cured (P. berghei; 4 × 30 mg/kg, oral, parasite-free on day 30 post-infection, 30 mg/kg): two of the three and 2/3
mice cured (P. berghei; second trial, 4 × 46 mg/kg, oral (equimolar to 30 mg/kg CQ)): 9 out of 10 and 9/10
hemozoin formation by microscopy ([3]; 10 nM drug): appeared to preclude hemozoin formation
hemozoin formation by microscopy ([5]; 10 nM drug, 24 hours): appeared to preclude hemozoin formation
IC50 (β-hematin): 1600 nM

OCCN1CCN(C(c2ccccc2)c2ccccc2)CC1 [Compound 26, 2-(4-Benzhydrylpiperazin-1-yl)ethanol]
Kd [µM (app)] [7]: no activity
